Our source for the IC50 and JAK1/JAK2 selectivity values is patent US20260092070A1, “INHIBITORS OF CANINE JANUS KINASE AND USES THEREOF” (ANIMOL DISCOVERY, INC., priority 2023, published 2026).

One assay addresses Human JAK-2 (Homo sapiens, UniProt O60674). Nature of the assay: JAK enzymatic assay (Eurofins KinaseProfiler/IC50Profiler, radiometric), JAK-2. Type of assay: biochemical. As to conditions: human JAK-2 enzyme, 9 concentrations; read-out: JAK2 affinity (IC50) category.
For another assay, the target named is JAK-1 (Homo sapiens, UniProt P23458). Nature of the assay: JAK enzymatic assay (Eurofins KinaseProfiler/IC50Profiler, radiometric), JAK-1. As to conditions: for JAK1/JAK2 selectivity: selectivity IC50 ratio for JAK1 versus JAK2, human enzymes.
Chain of JAK-1 (P23458 whole entry): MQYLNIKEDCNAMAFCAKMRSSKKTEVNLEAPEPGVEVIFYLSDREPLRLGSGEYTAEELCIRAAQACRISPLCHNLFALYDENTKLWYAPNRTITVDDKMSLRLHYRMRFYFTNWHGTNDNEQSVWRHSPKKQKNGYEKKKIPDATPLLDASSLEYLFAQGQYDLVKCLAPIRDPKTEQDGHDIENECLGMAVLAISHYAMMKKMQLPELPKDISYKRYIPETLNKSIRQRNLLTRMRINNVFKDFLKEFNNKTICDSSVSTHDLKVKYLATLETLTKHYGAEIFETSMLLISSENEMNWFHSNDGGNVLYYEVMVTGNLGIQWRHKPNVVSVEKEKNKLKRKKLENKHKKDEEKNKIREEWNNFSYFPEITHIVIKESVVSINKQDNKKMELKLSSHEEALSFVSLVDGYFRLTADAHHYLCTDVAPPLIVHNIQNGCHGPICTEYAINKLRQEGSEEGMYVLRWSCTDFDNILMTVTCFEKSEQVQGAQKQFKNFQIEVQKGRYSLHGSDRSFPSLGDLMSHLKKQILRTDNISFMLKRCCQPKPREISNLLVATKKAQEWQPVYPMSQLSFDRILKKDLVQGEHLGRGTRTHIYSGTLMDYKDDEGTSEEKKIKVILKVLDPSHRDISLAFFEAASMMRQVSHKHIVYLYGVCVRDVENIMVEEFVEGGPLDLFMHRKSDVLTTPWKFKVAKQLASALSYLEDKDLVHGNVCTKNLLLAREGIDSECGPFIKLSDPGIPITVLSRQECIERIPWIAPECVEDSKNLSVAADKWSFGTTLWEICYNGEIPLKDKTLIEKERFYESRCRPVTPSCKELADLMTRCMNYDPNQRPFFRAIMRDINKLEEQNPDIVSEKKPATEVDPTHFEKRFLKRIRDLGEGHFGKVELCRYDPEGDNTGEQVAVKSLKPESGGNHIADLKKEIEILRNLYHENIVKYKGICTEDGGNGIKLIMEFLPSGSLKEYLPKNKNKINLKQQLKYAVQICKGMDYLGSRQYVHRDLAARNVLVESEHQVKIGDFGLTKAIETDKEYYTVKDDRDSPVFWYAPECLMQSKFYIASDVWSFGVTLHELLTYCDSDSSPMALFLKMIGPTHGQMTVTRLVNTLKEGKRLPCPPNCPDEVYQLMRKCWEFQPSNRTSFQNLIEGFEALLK

Chain of Human JAK-2 (O60674 whole entry): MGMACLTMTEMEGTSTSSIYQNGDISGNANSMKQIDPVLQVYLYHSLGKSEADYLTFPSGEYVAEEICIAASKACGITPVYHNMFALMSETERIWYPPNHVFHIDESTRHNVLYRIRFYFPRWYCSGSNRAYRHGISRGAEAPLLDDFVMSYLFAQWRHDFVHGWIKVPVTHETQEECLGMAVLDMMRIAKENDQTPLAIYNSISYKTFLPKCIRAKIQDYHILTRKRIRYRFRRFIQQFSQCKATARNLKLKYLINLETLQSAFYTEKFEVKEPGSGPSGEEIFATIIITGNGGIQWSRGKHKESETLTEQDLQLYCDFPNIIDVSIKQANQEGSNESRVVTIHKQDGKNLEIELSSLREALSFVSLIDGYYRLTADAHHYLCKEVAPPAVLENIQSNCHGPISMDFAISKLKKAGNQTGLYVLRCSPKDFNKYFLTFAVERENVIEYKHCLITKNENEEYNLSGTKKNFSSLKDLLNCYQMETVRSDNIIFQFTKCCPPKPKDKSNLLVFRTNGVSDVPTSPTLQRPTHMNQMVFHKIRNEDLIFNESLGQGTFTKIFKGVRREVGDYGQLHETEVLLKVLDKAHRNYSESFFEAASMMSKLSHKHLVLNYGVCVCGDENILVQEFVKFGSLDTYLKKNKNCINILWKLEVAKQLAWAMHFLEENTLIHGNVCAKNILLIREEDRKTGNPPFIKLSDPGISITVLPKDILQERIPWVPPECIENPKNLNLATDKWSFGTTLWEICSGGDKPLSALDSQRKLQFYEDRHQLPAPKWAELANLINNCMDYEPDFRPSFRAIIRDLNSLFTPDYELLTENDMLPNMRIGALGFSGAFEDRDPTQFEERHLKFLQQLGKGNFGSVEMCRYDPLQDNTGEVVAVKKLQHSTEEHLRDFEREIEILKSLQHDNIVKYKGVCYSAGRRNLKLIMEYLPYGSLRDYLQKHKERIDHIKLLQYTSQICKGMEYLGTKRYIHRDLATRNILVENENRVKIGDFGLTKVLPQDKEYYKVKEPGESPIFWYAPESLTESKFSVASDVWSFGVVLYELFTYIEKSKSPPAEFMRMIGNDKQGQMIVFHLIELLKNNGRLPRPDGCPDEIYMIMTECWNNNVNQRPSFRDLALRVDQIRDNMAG
Method for Human JAK-2: (§1) All enzyme assays were conducted according to Eurofins Discovery's KinaseProfiler™ and IC50Profiler™ services.
(SEQ ID NO: 2) peptide substrate, 10 mM magnesium acetate and [gamma-33P]-ATP (specific activity and concentration as required). The reaction was initiated by the addition of the Mg/ATP mix. After incubation for 40 minutes at room temperature, the reaction was stopped by the addition of phosphoric acid to a concentration of 0.5%. An aliquot of the reaction was then spotted onto a filter and washed four times for 4 minutes in 0.425% phosphoric acid and once with methanol prior to drying and scintillation counting.
Data was then imported into an internal application where each data point was expressed as % inhibition based on uninhibited and no enzyme controls.
Method for JAK-1: as §1
(SEQ ID NO.: 1) peptide substrate, 10 mM magnesium acetate and [gamma-33P]-ATP (specific activity and concentration as required). The reaction was initiated by the addition of the Mg/ATP mix. After incubation for 40 minutes at room temperature, the reaction was stopped by the addition of phosphoric acid to a concentration of 0.5%. An aliquot of the reaction was then spotted onto a filter and washed four times for 4 minutes in 0.425% phosphoric acid and once with methanol prior to drying and scintillation counting. A known inhibitor, Staurosporine, was used as a positive control for the assay.
Data was then imported into an internal application where each data point was expressed as % inhibition based on uninhibited and no enzyme controls. […] Inhibition values for the JAK enzymes (IC50 values) for each compound were stratified into four groups.

As for `CCN(CC)S(=O)(=O)c1ccc(NC(=O)CN2CCN(c3ncnc4[nH]ccc34)CC2)cc1` [Compound 15, 2-(4-(7H-pyrrolo[2,3-d]pyrimidin-4-yl)piperazin-1-yl)-N-(4-(N,N-diethylsulfamoyl)phenyl)acetamide], the IC50 on Human JAK-2 was greater than 1000 nM; against JAK-1, 250 to 500 nM. At JAK-1, the JAK1/JAK2 selectivity was 9.

In the case of `O=C(Nc1ccccc1)C1CCN(C(=O)CN2CCN(c3ncnc4[nH]ccc34)CC2)CC1` [Compound 16, 1-(2-(4-(7H-pyrrolo[2,3-d]pyrimidin-4-yl)piperazin-1-yl)acetyl)-N-phenylpiperidine-4-carboxamide], the IC50 at Human JAK-2 is greater than 1000 nM. For the same compound, on JAK-1, the half-maximal inhibitory concentration (IC50) was 250 to 500 nM and the JAK1/JAK2 selectivity is 19.

Consider `CC1CCCN(C(=O)C2CCN(C(=O)CN3CCN(c4nc[nH]c5nccc4-5)CC3)CC2)C1` (stereo not shown) [Compound 23, 1-[4-(3-methylpiperidine-1-carbonyl)piperidin-1-yl]-2-(4-[1H-pyrrolo[2,3-d]pyrimidin-4-yl]piperazin-1-yl)ethan-1-one], for which the IC50 on Human JAK-2 and against JAK-1 was greater than 1000 nM in each case.

Take `CC(C)N(C)C(=O)C1CCN(C(=O)CN2CCN(c3nc[nH]c4nccc3-4)CC2)CC1` [Compound 24, N-methyl-N-(propan-2-yl)-1-[2-(4-{1H-pyrrolo[2,3-d]pyrimidin-4-yl}piperazin-1-yl)acetyl]piperidine-4-carboxamide]: the IC50 at Human JAK-2 and on JAK-1 was greater than 1000 nM in each case.

Turning to `O=C(CN1CCN(c2nc[nH]c3nccc2-3)CC1)Nc1ccc(S(=O)(=O)Nc2ncccn2)cc1` [Compound 25, N-{4-[(pyrimidin-2-yl)sulfamoyl]phenyl}-2-(4-{1H-pyrrolo[2,3-d]pyrimidin-4-yl}piperazin-1-yl)acetamide], on Human JAK-2, the IC50 was less than 250 nM. In addition, on JAK-1, the IC50 is less than 250 nM and the JAK1/JAK2 selectivity is 1.

Consider `O=C(CN1CCN(c2nc[nH]c3nccc2-3)CC1)N1CCC(Cc2ccccc2)CC1` [Compound 26, 1-(4-benzylpiperidin-1-yl)-2-(4-{1H-pyrrolo[2,3-d]pyrimidin-4-yl}piperazin-1-yl)ethan-1-one], for which the IC50 is greater than 1000 nM at Human JAK-2 and 250 to 500 nM at JAK-1. On JAK-1, the JAK1/JAK2 selectivity was greater than 22.

Consider `NS(=O)(=O)c1cccc(NC(=O)CN2CCN(c3nc[nH]c4nccc3-4)CC2)c1` [Compound 27, 2-(4-{1H-pyrrolo[2,3-d]pyrimidin-4-yl}piperazin-1-yl)-N-(3-sulfamoylphenyl)acetamide], for which the IC50 on Human JAK-2 was greater than 1000 nM. For the same compound, at JAK-1, the IC50 was less than 250 nM and the JAK1/JAK2 selectivity was found to be 14.

For `O=C(CN1CCN(c2nc[nH]c3nccc2-3)CC1)N1CCN(C(=O)Nc2ccccc2)CC1` [Compound 28, N-phenyl-4-[2-(4-{1H-pyrrolo[2,3-d]pyrimidin-4-yl}piperazin-1-yl)acetyl]piperazine-1-carboxamide], the IC50 on Human JAK-2 was greater than 1000 nM. Further, at JAK-1, the IC50 lay within 250 to 500 nM and the JAK1/JAK2 selectivity came to 19.

For the compound `CN(C)S(=O)(=O)c1cccc(NC(=O)CN2CCN(c3nc[nH]c4nccc3-4)CC2)c1` [Compound 29, N-[3-(dimethylsulfamoyl)phenyl]-2-(4-{1H-pyrrolo[2,3-d]pyrimidin-4-yl}piperazin-1-yl)acetamide], the IC50 at Human JAK-2 is greater than 1000 nM. Also, on JAK-1, the concentration for half-maximal inhibition (IC50) lay in the range of 500 to 1000 nM and the JAK1/JAK2 selectivity came to 11.

With `O=C(CN1CCN(c2nc[nH]c3nccc2-3)CC1)Nc1cccc(S(=O)(=O)N2CCOCC2)c1` [Compound 30, N-[3-(morpholine-4-sulfonyl)phenyl]-2-(4-{1H-pyrrolo[2,3-d]pyrimidin-4-yl}piperazin-1-yl)acetamide], the IC50 on Human JAK-2 was greater than 1000 nM. Moreover, at JAK-1, the IC50 was greater than 1000 nM and the JAK1/JAK2 selectivity was 6.

In the case of `O=C(CN1CCN(c2nc[nH]c3nccc2-3)CC1)Nc1ccc(S(=O)(=O)N2CCCCC2)cc1` [Compound 31, N-[4-(piperidine-1-sulfonyl)phenyl]-2-(4-{1H-pyrrolo[2,3-d]pyrimidin-4-yl}piperazin-1-yl)acetamide], at Human JAK-2, the IC50 is greater than 1000 nM. In addition, at JAK-1, the IC50 was less than 250 nM and the JAK1/JAK2 selectivity was 4.
